# Results: ChEMBL document CHEMBL3430912, “GSK Tres Cantos Anti-Kinetoplastid Screening (TCAKS) Data”
# Tests used:
# [1] = GSK_TCAKS: pIC50 HepG2 human cell line viability assay using luminiscence. […] Seeding density was checked to ensure that new mono-layers were not more than 50% confluent at the time of harvesting. Cell suspension was added to 500 mL of the same medium at a final density of 1.2 * 10^5 cells/mL. This cell suspension was dispensed (25 uL, 3000 cells per well) into 384-well clear-bottom plates using a Multidrop Combi dispenser. Prior to addition of the cell suspension, the screening compounds (250 nL) were pre-dispensed into the plates with an Echo liquid handler. Plates were incubated for 48 h at 37C, 5% CO2. After incubation, plates equilibrated at room temperature for 30 min before proceeding to develop the luminescent signal. The signal developer, CellTiter-Glo Reagent, was allowed to equilibrate at room temperature for 30 min and added to the plates (25uL per well) using a Multidrop Combi dispenser. Plates were left for 10 min at room temperature for stabilization and then read using a ViewLux.; assay type: toxicity, cell-based
# Leishmania donovani [2] = experiment: GSK_TCAKS: pIC50 Leishmania donovani viability assay using fluorescence intensity. Assay plates (1536-well) were prepared by adding 30nL per well of compound. For single shot assay, the final compound concentration was 5uM. […] Briefly, eGFP LdBOB axenic amastigotes were harvested, fixed and counted in a CASY cell counter (Roche-Applied Science). A final concentration of 1.5 * 10^5 cells per well were prepared in amastigote media containing 500 U/mL penicillin/streptomycin (Invitrogen) and 6uL was dispensed to each experimental well using a Multidrop Combi dispenser (Thermo Scientific). 6uL of assay media was dispensed to control columns used as reference for 100% compound response. Following incubation for 72 h at 37C, 5% CO2, 2 uL of resazurin was added to each well at a final concentration of 0.5 mM in phosphate buffered saline (PBS) with IGEPAL (Sigma-Aldrich), 0.05% (v/v).; assay type: functional, organism-based
# Leishmania donovani [3] = experiment: GSK_TCAKS: pIC50 Leishmania donovani Imaging: Amastigotes/Macrophages. Assay plates (384-well) were prepared by adding 250nL of compound to each well. For single shot assay, the final compound concentration was 5 uM. […] Automated image analysis was performed with a script developed on Acapella High Content Imaging and Analysis Software (PerkinElmer). Output: Average number of amastigotes per macrophage cell were reported for each well.; assay type: functional, organism-based, Homo sapiens; settings: THP-1
# Trypanosoma cruzi [4] = experiment: (§1) GSK_TCAKS: pIC50 Trypanosoma cruzi Imaging: Infected Cells. […] Cells were then washed once with PBS before infection. T. cruzi trypomastigotes, collected at days 5 to 8 after infection from LLC-MK2 parasite infected cultures, were allowed to swim out for 4h at 37C from a centrifuged pellet (2,500 rpm/10 min/room temperature). Trypomastigotes were then collected and counted in a CASY Cell Counter. Trypomastigotes, in supplemented DMEM, were added to H9c2 cultures in a multiplicity of infection of 1 and incubated for 18 h. Cells were washed once with PBS before incubation of the infected H9c2 monolayer with trypsin (Life-Technologies) to detach cells from the flask. Cells were counted in a CASY Cell Counter using a 150 um capillary and their density set at 5 * 10^4 cells per mL in supplemented assay DMEM. Infected H9c2 were dispensed into 384-well poly-lysine coated assay plates at 50uL per well using a Multidrop Combi dispenser. After seeding them, the plates were incubated at 37C, 5% CO2 for 72h. Cultures were then fixed and stained by addition of 50 uL of a solution containing 8% formaldehyde and 4 uM DRAQ5 DNA dye (BioStatus, UK) per well. […] Five images were collected per well for reliable statistical analysis. Automated image analysis was performed with a script developed on Acapella High Content Imaging and Analysis Software (PerkinElmer). Output: percentage of infected cells per well as a second infection marker.; assay type: functional, organism-based, Rattus norvegicus; settings: H9c2, 4 h
# Trypanosoma cruzi [5] = experiment: GSK_TCAKS: pIC50 Trypanosoma cruzi viability assay using beta-GAL activity. This assay was run at single shot at 5uM compound concentration per well. The biological reagents consisted of NIH-3T3 host cells and trypomastigotes parasitic cells; both cell types were set to a 3.3 * 10^5 cells/mL dilution in assay DMEM by means of a CASY cell counter device using a 60um capillary. 6 uL of the mixture were dispensed per well (about 1 * 10^3 host-cells and 1 * 10^3 parasites) with a Multidrop Combi dispenser. […] In all wells, the percentage of DMSO never exceeded 0.5%. Plates incubated for four days at 37C, 5% CO2. The substrate used for the assay fluorescence intensity (FLINT) readout was resorufin-beta-D-galactopiranoside (Sigma-Aldrich) at 5uM per well. It was diluted in PBS supplemented with the soft detergent Igepal (Fluka).; assay type: functional, organism-based, Mus musculus; settings: Tulahuen, NIH3T3
# Trypanosoma cruzi [6] = experiment: as §1, with “H2C9” for “Trypanosoma cruzi”, “H9c2 Host Cardiomyocytes.” for “Infected Cells.”, “Number” for “percentage”, “H9c2 Host Cardiomyocytes nuclei to determine drug-related cytotoxicity.” for “infected cells per well as a second infection marker.”; assay type: functional, organism-based, Rattus norvegicus; settings: H9c2, 4 h
# [7] = system: Trypanosoma brucei brucei; experiment: GSK_TCAKS: pIC50 Trypanosoma brucei viability assay using fluorescence intensity. Assay plates (1536-well) were prepared by dispensing 25nL of compound solution per well using an Echo acoustic dispenser (Labcyte).; assay type: functional, organism-based; settings: Lister 427, 2 h
# Trypanosoma cruzi [8] = experiment: GSK_TCAKS: pIC50 Trypanosoma cruzi Imaging: Amastigotes/Cell. […] Cells were then washed once with PBS before infection. T. cruzi trypomastigotes, collected at days 5 to 8 after infection from LLC-MK2 parasite infected cultures, were allowed to swim out for 4h at 37C from a centrifuged pellet (2,500 rpm/10 min/room temperature). Trypomastigotes were then collected and counted in a CASY Cell Counter. Trypomastigotes, in supplemented DMEM, were added to H9c2 cultures in a multiplicity of infection of 1 and incubated for 18 h. Cells were washed once with PBS before incubation of the infected H9c2 monolayer with trypsin (Life-Technologies) to detach cells from the flask. Cells were counted in a CASY Cell Counter using a 150 um capillary and their density set at 5 * 10^4 cells per mL in supplemented assay DMEM. Infected H9c2 were dispensed into 384-well poly-lysine coated assay plates at 50uL per well using a Multidrop Combi dispenser. After seeding them, the plates were incubated at 37C, 5% CO2 for 72h. Cultures were then fixed and stained by addition of 50 uL of a solution containing 8% formaldehyde and 4 uM DRAQ5 DNA dye (BioStatus, UK) per well. […] Five images were collected per well for reliable statistical analysis. Automated image analysis was performed with a script developed on Acapella High Content Imaging and Analysis Software (PerkinElmer). Output: number of amastigotes per cell as infection level measurement.; assay type: functional, organism-based, Rattus norvegicus; settings: H9c2, 4 h
# [9] = target: Sterol 14-alpha demethylase (Trypanosoma cruzi (strain CL Brener), UniProt Q7Z1V1); experiment: GSK_TCAKS: pIC50 CYP51 from Trypanosoma cruzi.; assay type: functional
# Leishmania donovani [10] = experiment: GSK_TCAKS: pIC50 Leishmania donovani Imaging: THP-1 Host Macrophages. Assay plates (384-well) were prepared by adding 250nL of compound to each well. For single shot assay, the final compound concentration was 5 uM. […] Automated image analysis was performed with a script developed on Acapella High Content Imaging and Analysis Software (PerkinElmer). Output: THP-1 cell count were reported for each well.; assay type: functional, organism-based, Homo sapiens
# [11] = system: Trypanosoma brucei brucei; experiment: GSK_TCAKS: pIC50 Trypanosoma brucei viability assay using luminiscence. Assay plates (1536-well) were prepared. T. brucei cultures were harvested and counted in a CASY cell counter. A parasite suspension was prepared at a final concentration of 5 * 10^4 cells/mL in complete HMI9 medium and 6uL was dispensed to all wells containing compounds using a Multidrop Combi dispenser. 6uL of HMI9 media with 0.4% DMSO were dispensed to control columns. Plates were incubated for 24 h at 37C, 5% CO2 then tempered for 10 min at room temperature. ATP content was quantified by adding 4 uL of CellTiter-Glo Reagent (Promega) according to the manufacturer's instructions. Luminescence was measured using a ViewLux.; assay type: functional, organism-based; settings: Lister 427, CASY
# Leishmania donovani [12] = experiment: GSK_TCAKS: pIC50 Leishmania donovani Imaging: Infected Macrophages. Assay plates (384-well) were prepared by adding 250nL of compound to each well. For single shot assay, the final compound concentration was 5 uM. […] Automated image analysis was performed with a script developed on Acapella High Content Imaging and Analysis Software (PerkinElmer). Output: Percent of infected macrophage cells were reported for each well.; assay type: functional, organism-based, Homo sapiens; settings: THP-1
# Sterol 14-alpha demethylase, sequence (Q7Z1V1 whole entry): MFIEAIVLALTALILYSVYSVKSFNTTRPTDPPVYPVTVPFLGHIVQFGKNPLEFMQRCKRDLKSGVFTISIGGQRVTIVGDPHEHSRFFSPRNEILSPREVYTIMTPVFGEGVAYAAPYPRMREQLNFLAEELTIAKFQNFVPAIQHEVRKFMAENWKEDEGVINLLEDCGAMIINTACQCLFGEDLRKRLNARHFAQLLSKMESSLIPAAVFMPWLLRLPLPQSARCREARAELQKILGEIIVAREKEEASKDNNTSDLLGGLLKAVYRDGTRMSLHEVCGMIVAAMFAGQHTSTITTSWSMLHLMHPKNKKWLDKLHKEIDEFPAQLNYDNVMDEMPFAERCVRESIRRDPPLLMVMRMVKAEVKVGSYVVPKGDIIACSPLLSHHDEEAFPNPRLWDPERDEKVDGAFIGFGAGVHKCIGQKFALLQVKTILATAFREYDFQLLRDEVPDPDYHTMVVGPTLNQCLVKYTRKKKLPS
SMILES,IC50 at 48 h [1] [µM],IC50 (Leishmania donovani [2]) [µM],IC50 (Leishmania donovani [3]) [µM],IC50 (Trypanosoma cruzi [4]) [µM],IC50 (Trypanosoma cruzi [5]) [µM],IC50 (Trypanosoma cruzi [6]) [µM],IC50 [7] [µM],IC50 (Trypanosoma cruzi [8]) [µM],IC50 [9] [µM],IC50 (Leishmania donovani [10]) [µM],IC50 [11] [µM],IC50 (Leishmania donovani [12]) [µM]
Cc1ccc2onc(Nc3ccnc(Nc4cccc(S(C)(=O)=O)c4)n3)c2c1,50.1,5.01,1,0.631,3.98,5.01,6.31,0.398,39.8,20,7.94,2
Cn1nc(-c2ccc(NC(=O)Cc3ccccc3Cl)cc2)c2c(N)ncnc21,> 100,> 50.1,> 50.1,1.26,2,7.94,0.398,1,63.1,> 50.1,0.251,> 50.1
Cc1cc(Nc2ccc(C#N)c(Cl)c2C)[nH]n1,> 100,50.1,> 50.1,> 50.1,25.1,> 50.1,0.00794,20,39.8,20,0.251,> 50.1
Cc1c(Nc2cc(C3CC3)n[nH]2)ccc(C#N)c1Cl,39.8,20,25.1,25.1,2.51,10,0.398,15.8,20,25.1,0.631,39.8
CCOC(=O)c1cn[nH]c1S(=O)(=O)N1CCC1c1ccccc1 (centres undefined),> 100,> 50.1,> 50.1,> 50.1,> 50.1,> 50.1,0.631,> 50.1,50.1,> 50.1,0.794,> 50.1
COc1cc(-c2noc(CC#N)n2)ccc1OC(F)F,> 100,> 50.1,> 50.1,39.8,39.8,31.6,0.631,25.1,100,50.1,0.631,> 50.1
CS(=O)(=O)c1ccc(Nc2nccc(Nc3n[nH]c4ccc(F)cc34)n2)c(F)c1,79.4,12.6,10,31.6,7.94,15.8,0.501,3.98,39.8,15.8,0.794,12.6
Cc1nc2c(-c3ncn[nH]3)cc(NC(=O)Cc3ccccc3)cn2c1C,15.8,0.794,0.316,1,1,6.31,3.16,0.794,10,7.94,10,0.398
Cc1[nH]nc(Nc2ccnc3[nH]ccc23)c1C,> 100,> 50.1,> 50.1,> 50.1,3.98,> 50.1,0.126,> 50.1,79.4,> 50.1,0.251,> 50.1
COc1cc(Nc2nccc(Nc3onc(C)c3C)n2)cc(S(=O)(=O)C2CCOCC2)c1,31.6,39.8,5.01,25.1,6.31,10,0.501,12.6,7.94,39.8,0.501,> 50.1
O=C(NCCc1ccn(-c2ccccc2)n1)C1CCCCC1,> 100,> 50.1,> 50.1,1,1.26,> 50.1,0.251,1,100,> 50.1,0.316,> 50.1
CC(C)(C)C(=O)Nc1cc(C2CC2)nn1-c1nc2c(c(=O)[nH]1)CCCC2,> 100,0.0794,2,0.501,0.501,2,0.158,0.126,> 100,7.94,0.2,5.01
